In patent US20240300932A1, “N-PHENYLIMINE DERIVATIVE AND PREPARATION METHOD AND USE THEREOF” (Guizhou University, priority 2023, published 2024):

Experiments:
Experiment in all cases: Post-emergence herbicidal activity test (stem and leaf spray, pot culture)
Format in all cases: in vivo
Conditions in all cases: 3 weeks after spraying
[1] = tested on: Abutilon theophrasti
Summary of the method: (§1)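 Graded 0–5 on fresh-weight growth control rate 3 weeks after a single spray-tower application at 10, 5 or 2.5 g/mu. Compounds in acetone with Tween 80 and methyl oleate synergist (1.5 liters/ha), applied to greenhouse weeds at 2- to 3-leaf stage.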

[2] = tested on: Portulaca oleracea
Summary of the method: as §1

[3] = tested on: Amaranthus retroflexus
Summary of the method: as §1

[4] = tested on: Setaria viridis
Summary of the method: as §1

[5] = tested on: Echinochloa crusgalli
Summary of the method: as §1

[6] = tested on: Trifoliumre pensL.
Summary of the method: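 Pot-grown weeds in loam (pH 7), greenhouse at 20–30 °C, sprayed once post-emergence at the 2–3-leaf stage. Compound in acetone with Tween 80 plus methyl oleate oil (1.5 L/ha), applied at 10, 5 and 2.5 g/mu by spray tower. Effect scored 3 weeks after spraying, averaged over three repeats.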

Row | SMILES | Post-emergence herbicidal activity, A. theophrasti (grade) ([1]; dosage 2.5 g/mu) | Post-emergence herbicidal activity, A. theophrasti (grade) ([1]; dosage 5 g/mu) | Post-emergence herbicidal activity, A. theophrasti (grade) ([1]; dosage 10 g/mu) | Post-emergence herbicidal activity, P. oleracea (grade) ([2]; dosage 2.5 g/mu) | Post-emergence herbicidal activity, P. oleracea (grade) ([2]; dosage 5 g/mu) | Post-emergence herbicidal activity, P. oleracea (grade) ([2]; dosage 10 g/mu) | Post-emergence herbicidal activity, A. retroflexus (grade) ([3]; dosage 2.5 g/mu) | Post-emergence herbicidal activity, A. retroflexus (grade) ([3]; dosage 5 g/mu) | Post-emergence herbicidal activity, A. retroflexus (grade) ([3]; dosage 10 g/mu) | Post-emergence herbicidal activity, S. viridis (grade) ([4]; dosage 2.5 g/mu) | Post-emergence herbicidal activity, S. viridis (grade) ([4]; dosage 5 g/mu) | Post-emergence herbicidal activity, S. viridis (grade) ([4]; dosage 10 g/mu) | Post-emergence herbicidal activity, E. crusgalli (grade) ([5]; dosage 2.5 g/mu) | Post-emergence herbicidal activity, E. crusgalli (grade) ([5]; dosage 5 g/mu) | Post-emergence herbicidal activity, E. crusgalli (grade) ([5]; dosage 10 g/mu) | Post-emergence herbicidal activity, Trifoliumre pensL. (grade) ([6]; dosage 2.5 g/mu) | Post-emergence herbicidal activity, Trifoliumre pensL. (grade) ([6]; dosage 5 g/mu) | Post-emergence herbicidal activity, Trifoliumre pensL. (grade) ([6]; dosage 10 g/mu)
1 | Cc1cccc(-c2nnc(COc3cc(N4C(=O)C5=C(CCCC5)C4=O)c(F)cc3Cl)o2)c1 [Compound B3, 2-(4-chloro-2-fluoro-5-(5-(3-tolyl)-1,3,4-oxadiazole-2-methoxy)phenyl)-4,5,6,7-tetrahydro-1H-isoindole-1,3(2H)-dione] | 5 (Grade 5: the growth control rate is greater than or equal to 85%) | 5 (Grade 5: the growth control rate is greater than or equal to 85%) | 5 (Grade 5: the growth control rate is greater than or equal to 85%) | 5 (Grade 5: the growth control rate is greater than or equal to 85%) | 5 (Grade 5: the growth control rate is greater than or equal to 85%) | 5 (Grade 5: the growth control rate is greater than or equal to 85%) | 5 (Grade 5: the growth control rate is greater than or equal to 85%) | 5 (Grade 5: the growth control rate is greater than or equal to 85%) | 5 (Grade 5: the growth control rate is greater than or equal to 85%) | 2 (Grade 2: the growth control rate is greater than or equal to 20% and less than 40%) | 3 (Grade 3: the growth control rate is greater than or equal to 40% and less than 60%) | 4 (Grade 4: the growth control rate is greater than or equal to 60% and less than 85%) | 1 (Grade 1: the growth control rate is greater than or equal to 5% and less than 20%) | 2 (Grade 2: the growth control rate is greater than or equal to 20% and less than 40%) | 3 (Grade 3: the growth control rate is greater than or equal to 40% and less than 60%) | 5 (Grade 5: the growth control rate is greater than or equal to 85%) | 5 (Grade 5: the growth control rate is greater than or equal to 85%) | 5 (Grade 5: the growth control rate is greater than or equal to 85%)
2 | CC(Br)C(=O)Nc1cc(N2C(=O)C3=C(CCCC3)C2=O)c(F)cc1Cl (stereo not drawn) [Compound D3, 2-bromo-N-(2-chloro-5-(1,3-dioxo-1,3,4,5,6,7-hexahydro-2H-isoindol-2-yl)-4-fluorophenyl)propionamide] |  |  | 5 (Grade 5: the growth control rate is greater than or equal to 85%) |  |  | 5 (Grade 5: the growth control rate is greater than or equal to 85%) |  |  | 5 (Grade 5: the growth control rate is greater than or equal to 85%) |  |  | 3 (Grade 3: the growth control rate is greater than or equal to 40% and less than 60%) |  |  | 3 (Grade 3: the growth control rate is greater than or equal to 40% and less than 60%) |  |  | 5 (Grade 5: the growth control rate is greater than or equal to 85%)
3 | O=C1C2=C(CCCC2)C(=O)N1c1cc(OCc2nc(-c3ccccc3)no2)c(Cl)cc1F [Compound A25] | 5 (Grade 5: the growth control rate is greater than or equal to 85%) | 5 (Grade 5: the growth control rate is greater than or equal to 85%) | 5 (Grade 5: the growth control rate is greater than or equal to 85%) | 4 (Grade 4: the growth control rate is greater than or equal to 60% and less than 85%) | 5 (Grade 5: the growth control rate is greater than or equal to 85%) | 5 (Grade 5: the growth control rate is greater than or equal to 85%) | 5 (Grade 5: the growth control rate is greater than or equal to 85%) | 5 (Grade 5: the growth control rate is greater than or equal to 85%) | 5 (Grade 5: the growth control rate is greater than or equal to 85%) | 2 (Grade 2: the growth control rate is greater than or equal to 20% and less than 40%) | 3 (Grade 3: the growth control rate is greater than or equal to 40% and less than 60%) | 4 (Grade 4: the growth control rate is greater than or equal to 60% and less than 85%) | 1 (Grade 1: the growth control rate is greater than or equal to 5% and less than 20%) | 2 (Grade 2: the growth control rate is greater than or equal to 20% and less than 40%) | 3 (Grade 3: the growth control rate is greater than or equal to 40% and less than 60%) | 4 (Grade 4: the growth control rate is greater than or equal to 60% and less than 85%) | 5 (Grade 5: the growth control rate is greater than or equal to 85%) | 5 (Grade 5: the growth control rate is greater than or equal to 85%)
4 | CCOC(=O)CC(=O)Nc1cc(N2C(=O)C3=C(CCCC3)C2=O)c(F)cc1Cl [Compound D6, 3-((2-chloro-5-(1,3-dioxo-1,3,4,5,6,7-hexahydro-2H-isoindole-2-yl)-4-fluorophenyl)amino)-ethyl 3-oxopropanoate] |  |  | 5 (Grade 5: the growth control rate is greater than or equal to 85%) |  |  | 5 (Grade 5: the growth control rate is greater than or equal to 85%) |  |  | 5 (Grade 5: the growth control rate is greater than or equal to 85%) |  |  | 3 (Grade 3: the growth control rate is greater than or equal to 40% and less than 60%) |  |  | 3 (Grade 3: the growth control rate is greater than or equal to 40% and less than 60%) |  |  | 5 (Grade 5: the growth control rate is greater than or equal to 85%)
5 | O=C1C2=C(CCCC2)C(=O)N1c1cc(OCc2nnc(-c3ccccc3Cl)o2)c(Cl)cc1F [Compound B5] | 5 (Grade 5: the growth control rate is greater than or equal to 85%) | 5 (Grade 5: the growth control rate is greater than or equal to 85%) | 5 (Grade 5: the growth control rate is greater than or equal to 85%) | 5 (Grade 5: the growth control rate is greater than or equal to 85%) | 5 (Grade 5: the growth control rate is greater than or equal to 85%) | 5 (Grade 5: the growth control rate is greater than or equal to 85%) | 5 (Grade 5: the growth control rate is greater than or equal to 85%) | 5 (Grade 5: the growth control rate is greater than or equal to 85%) | 5 (Grade 5: the growth control rate is greater than or equal to 85%) | 2 (Grade 2: the growth control rate is greater than or equal to 20% and less than 40%) | 3 (Grade 3: the growth control rate is greater than or equal to 40% and less than 60%) | 4 (Grade 4: the growth control rate is greater than or equal to 60% and less than 85%) | 1 (Grade 1: the growth control rate is greater than or equal to 5% and less than 20%) | 2 (Grade 2: the growth control rate is greater than or equal to 20% and less than 40%) | 3 (Grade 3: the growth control rate is greater than or equal to 40% and less than 60%) | 5 (Grade 5: the growth control rate is greater than or equal to 85%) | 5 (Grade 5: the growth control rate is greater than or equal to 85%) | 5 (Grade 5: the growth control rate is greater than or equal to 85%)
